For this assay, the target named is Polθ theta (1-899) (hPolQ) (Homo sapiens (Human), UniProt O75417). Briefly: Biological Assay 1: Polθ ATPase activity, NADH oxidation-coupled enzymatic assay (10 nM enzyme, 30 min). It is filed as biochemical. Conditions: Polθ (1-899) 10 nM, 100 μM ATP, 300 nM dT50 ssDNA; Examples 1 to 268; read-out: ATPase NADH coupling:Standard Screening:hPolQ IC50. How it is done: The ability of the compounds of Formula (I), (II), (III), (IV), or Table 1 (Examples 1 to Example 268) to inhibit ATPase activity of Polθ theta (1-899) was determined using the assay described below.
Polθ Theta ATPase activity was determined by measuring the rate of ATP turn over in a NADH oxidation-coupled enzymatic assay. 10-point dilution series of compounds were used in a 384 well format for the inhibition assays. Polθ theta (1-899) (10 nM) in assay buffer (20 mM Tris HCl (pH 7.80), 80 mM KCl, 10 mM MgCl2, 1 mM DTT, 0.01% BSA, 0.01% Tween, 5% glycerol) was transferred to the test wells (20 μL), except the low control wells (20 μL of assay buffer was added to the low control wells). The plate was then incubated at room temperature for 15 min. An equal volume (20 μL) of 100 μM ATP, 300 nM dT50 (single-stranded DNA (ssDNA) containing 50 thymine bases), 300 μM NADH, 6 mM PEP, 10 U/mL lactate dehydrogenase and U/mL pyruvate kinase in assay buffer was added to all the test wells. The plate was then centrifuged at 1000 rpm for 1 min. The reaction was monitored for 30 min by measuring absorbance (λ=340 nm) in a Tecan Spark multimode plate reader every minute. The high control (DMSO with enzyme) with low absorbance intensity represents no inhibition of ATPase reaction while the low control (DMSO with buffer) with high absorbance intensity represents full inhibition of ATPase activity. Slope of the reaction progress curves were used to calculate the rate of ATP hydrolysis. The rates were used to determine the percent inhibition using a four-parameter inhibition model to generate IC50, Hill slope and max inhibition.

Sequence of Polθ theta (1-899) (hPolQ) (O75417 1-899): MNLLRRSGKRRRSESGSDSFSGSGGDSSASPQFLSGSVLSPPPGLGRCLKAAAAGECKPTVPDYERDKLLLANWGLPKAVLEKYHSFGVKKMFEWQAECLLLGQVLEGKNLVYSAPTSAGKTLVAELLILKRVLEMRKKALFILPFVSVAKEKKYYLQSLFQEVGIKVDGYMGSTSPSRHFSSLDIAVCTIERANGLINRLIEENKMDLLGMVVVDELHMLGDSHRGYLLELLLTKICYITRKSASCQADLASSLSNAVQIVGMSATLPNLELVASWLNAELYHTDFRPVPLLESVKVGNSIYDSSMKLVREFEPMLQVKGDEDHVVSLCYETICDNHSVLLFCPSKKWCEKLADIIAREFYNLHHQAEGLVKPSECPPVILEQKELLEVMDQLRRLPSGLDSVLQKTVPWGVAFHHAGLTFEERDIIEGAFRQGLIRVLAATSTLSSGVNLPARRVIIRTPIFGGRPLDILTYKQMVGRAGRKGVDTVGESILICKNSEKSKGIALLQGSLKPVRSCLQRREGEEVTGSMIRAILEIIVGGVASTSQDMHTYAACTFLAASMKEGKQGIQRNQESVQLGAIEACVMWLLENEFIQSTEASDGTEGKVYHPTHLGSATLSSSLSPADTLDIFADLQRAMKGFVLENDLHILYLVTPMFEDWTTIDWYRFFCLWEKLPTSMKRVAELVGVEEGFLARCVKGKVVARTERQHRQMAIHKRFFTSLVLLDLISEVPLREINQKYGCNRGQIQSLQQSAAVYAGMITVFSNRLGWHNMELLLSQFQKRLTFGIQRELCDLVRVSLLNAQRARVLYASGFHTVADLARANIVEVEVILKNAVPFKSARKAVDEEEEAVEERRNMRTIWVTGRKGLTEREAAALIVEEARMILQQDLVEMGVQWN

On to `COc1cccc(F)c1-c1cccnc1C(=O)Nc1nnc(OCc2ccc(Cl)cn2)s1` [Example 19, N-(5-((5-chloropyridin-2-yl)methoxy)-1,3,4-thiadiazol-2-yl)-3-(2-fluoro-6-methoxyphenyl)picolinamide], for which the IC50 lay in the range of 1000 to 10000 nM.

As to `COc1ccc(COc2nnc(NC(=O)c3cnc(C)cc3-c3c(F)cccc3OC)s2)nc1` [Example 20, 4-(2-fluoro-6-methoxyphenyl)-N-(5-((5-methoxypyridin-2-yl)methoxy)-1,3,4-thiadiazol-2-yl)-6-methylpyridine-3-carboxamide], the IC50 is not above 200 nM.

`COc1c(C#N)cccc1-c1cc(C)ncc1C(=O)Nc1nnc(OCc2ccc(Cl)cn2)s1` [Example 21, N-(5-((5-chloropyridin-2-yl)methoxy)-1,3,4-thiadiazol-2-yl)-4-(3-cyano-2-methoxyphenyl)-6-methylnicotinamide]: the IC50 is not above 200 nM.

For the compound `Cc1cc(-c2cc(CO)ccc2F)c(C(=O)Nc2nnc(OCc3ccc(Cl)cn3)s2)cn1` [Example 23, N-(5-((5-chloropyridin-2-yl)methoxy)-1,3,4-thiadiazol-2-yl)-4-(2-fluoro-5-(hydroxymethyl)phenyl)-6-methylnicotinamide], the IC50 was not above 200 nM.

In the case of `COc1cccc(F)c1-c1cc(C)ncc1C(=O)Nc1nnc(OCc2ccc(S(C)(=O)=O)cn2)s1` [Example 24, 4-(2-fluoro-6-methoxyphenyl)-6-methyl-N-(5-((5-(methylsulfonyl)pyridin-2-yl)methoxy)-1,3,4-thiadiazol-2-yl)nicotinamide], the IC50 is not above 200 nM.

Take `Cc1cc(-c2c(F)cccc2OC(F)F)c(C(=O)Nc2nnc(OCc3ccc(CO)cn3)s2)cn1` [Example 25, 4-(2-(difluoromethoxy)-6-fluorophenyl)-N-(5-((5-(hydroxymethyl)pyridin-2-yl)methoxy)-1,3,4-thiadiazol-2-yl)-6-methylnicotinamide]: the IC50 was not above 200 nM.

For `COCc1cccc(COc2nnc(NC(=O)c3cnc(C)cc3-c3ccccc3OC)s2)n1` [Example 26, N-(5-((6-(methoxymethyl)pyridin-2-yl)methoxy)-1,3,4-thiadiazol-2-yl)-4-(2-methoxyphenyl)-6-methylnicotinamide], the IC50 lay in the range of 200 to 500 nM.

Turning to `COc1ccccc1-c1cc(C)ncc1C(=O)Nc1nnc(OC[C@H](O)c2ccc(Cl)cn2)s1` [Example 27, (R)—N-(5-(2-(5-chloropyridin-2-yl)-2-hydroxyethoxy)-1,3,4-thiadiazol-2-yl)-4-(2-methoxyphenyl)-6-methylnicotinamide], the IC50 was 200 to 500 nM.

With `COc1ccccc1-c1cc(C)ncc1C(=O)Nc1nnc(OC[C@@H](O)c2ccc(Cl)cn2)s1` [Example 28, (S)—N-(5-(2-(5-chloropyridin-2-yl)-2-hydroxyethoxy)-1,3,4-thiadiazol-2-yl)-4-(2-methoxyphenyl)-6-methylnicotinamide], the IC50 lay within 500 to 1000 nM.

Regarding `COc1ccccc1-c1cc(C)ncc1C(=O)Nc1nnc(O[C@@H](CO)c2ccc(Cl)cn2)s1` [Example 29, (R)—N-(5-(1-(5-chloropyridin-2-yl)-2-hydroxyethoxy)-1,3,4-thiadiazol-2-yl)-4-(2-methoxyphenyl)-6-methylnicotinamide], the IC50 fell in the range of 1000 to 10000 nM.

On to `COc1ccccc1-c1cc(C)ncc1C(=O)Nc1nnc(O[C@H](CO)c2ccc(Cl)cn2)s1` [Example 30, (S)—N-(5-(1-(5-chloropyridin-2-yl)-2-hydroxyethoxy)-1,3,4-thiadiazol-2-yl)-4-(2-methoxyphenyl)-6-methylnicotinamide], for which the IC50 lay within 500 to 1000 nM.

Take `COc1cc(CO)ccc1-c1cc(C)ncc1C(=O)Nc1nnc(OCc2ccc(Cl)cn2)s1` [Example 31, N-(5-((5-chloropyridin-2-yl)methoxy)-1,3,4-thiadiazol-2-yl)-4-(4-(hydroxymethyl)-2-methoxyphenyl)-6-methylnicotinamide]: the IC50 was 200 to 500 nM.

For `COc1ccc(C#N)cc1-c1cc(C)ncc1C(=O)Nc1nnc(OCc2ccc(CO)cn2)s1` [Example 32, 4-(5-cyano-2-methoxyphenyl)-N-(5-((5-(hydroxymethyl)pyridin-2-yl)methoxy)-1,3,4-thiadiazol-2-yl)-6-methylpyridine-3-carboxamide], the IC50 is not above 200 nM.

As for `COc1cccc(F)c1-c1cc(C)ncc1C(=O)Nc1nnc(OCc2ccc(C(C)(C)O)cn2)s1` [Example 33, 4-(2-fluoro-6-methoxyphenyl)-N-(5-((5-(2-hydroxypropan-2-yl)pyridin-2-yl)methoxy)-1,3,4-thiadiazol-2-yl)-6-methylnicotinamide], the IC50 is not above 200 nM.

Turning to `COCc1ccc(COc2nnc(NC(=O)c3cnc(C)cc3-c3c(F)cccc3OC)s2)nc1` [Example 34, 4-(2-fluoro-6-methoxyphenyl)-N-(5-((5-(methoxymethyl)pyridin-2-yl)methoxy)-1,3,4-thiadiazol-2-yl)-6-methylnicotinamide], the IC50 was not above 200 nM.

On to `COc1cccc(F)c1-c1cc(C)ncc1C(=O)Nc1nnc(OCc2ccc3c(n2)OCCO3)s1` [Example 35, N-(5-(2H,3H-(1,4)dioxino(2,3-b)pyridin-6-ylmethoxy)-1,3,4-thiadiazol-2-yl)-4-(2-fluoro-6-methoxyphenyl)-6-methylpyridine-3-carboxamide], for which the IC50 is not above 200 nM.

`COc1cnc(C)cc1-c1cc(C)ncc1C(=O)Nc1nnc(OCc2ccc(Cl)cn2)s1` [Example 36, N-(5-((5-chloropyridin-2-yl)methoxy)-1,3,4-thiadiazol-2-yl)-5′-methoxy-2′,6-dimethyl-(4,4′-bipyridine)-3-carboxamide]: the IC50 was not above 200 nM.

For the compound `COc1cccc(F)c1-c1cncnc1C(=O)Nc1nnc(OCc2ccc(CO)cn2)s1` [Example 37, 5-(2-fluoro-6-methoxyphenyl)-N-(5-((5-(hydroxymethyl)pyridin-2-yl)methoxy)-1,3,4-thiadiazol-2-yl)pyrimidine-4-carboxamide], the IC50 was not above 200 nM.

As for `COc1cccc(F)c1-c1cc(C)ncc1C(=O)Nc1nnc(OCc2ccc(OC3COC3)cn2)s1` [Example 38, 4-(2-fluoro-6-methoxyphenyl)-6-methyl-N-(5-((5-(oxetan-3-yloxy)pyridin-2-yl)methoxy)-1,3,4-thiadiazol-2-yl)pyridine-3-carboxamide], the IC50 was not above 200 nM.

Turning to `COc1ccc(Cl)cc1-c1cc(C)ncc1C(=O)Nc1nnc(OCc2ccc(CO)cn2)s1` [Example 39, 4-(5-chloro-2-methoxyphenyl)-N-(5-((5-(hydroxymethyl)pyridin-2-yl)methoxy)-1,3,4-thiadiazol-2-yl)-6-methylpyridine-3-carboxamide], the concentration for half-maximal inhibition (IC50) is not above 200 nM.

`COc1cccc(F)c1-c1cc(C)ncc1C(=O)Nc1nnc(OCc2ccc([C@H](C)O)cn2)s1` [Example 40, 4-(2-fluoro-6-methoxyphenyl)-N-(5-((5-((S)-1-hydroxyethyl)pyridin-2-yl)methoxy)-1,3,4-thiadiazol-2-yl)-6-methylnicotinamide]: the IC50 is not above 200 nM.

Regarding `COc1cccc(F)c1-c1cc(C)ncc1C(=O)Nc1nnc(OCc2ccc([C@@H](C)O)cn2)s1` [Example 41, 4-(2-fluoro-6-methoxyphenyl)-N-(5-((5-((R)-1-hydroxyethyl)pyridin-2-yl)methoxy)-1,3,4-thiadiazol-2-yl)-6-methylnicotinamide], the concentration for half-maximal inhibition (IC50) was not above 200 nM.

Regarding `COc1ccccc1-c1cc(C)ncc1C(=O)Nc1nnc(OCc2cc(CO)ccn2)s1` [Example 42, N-(5-((4-(hydroxymethyl)pyridin-2-yl)methoxy)-1,3,4-thiadiazol-2-yl)-4-(2-methoxyphenyl)-6-methylpyridine-3-carboxamide], the IC50 is 200 to 500 nM.

Take `COc1ccc(COc2nnc(NC(=O)c3cnc(C)cc3-c3c(F)cccc3OC)s2)nc1OC` [Example 43, N-(5-((5,6-dimethoxypyridin-2-yl)methoxy)-1,3,4-thiadiazol-2-yl)-4-(2-fluoro-6-methoxyphenyl)-6-methylnicotinamide]: the IC50 is not above 200 nM.

For `COc1ccc(C)cc1-c1cc(C)ncc1C(=O)Nc1nnc(OCc2ccc(Cl)cn2)s1` [Example 44, N-(5-((5-chloropyridin-2-yl)methoxy)-1,3,4-thiadiazol-2-yl)-4-(2-methoxy-5-methylphenyl)-6-methylpyridine-3-carboxamide], the IC50 was not above 200 nM.

Turning to `COc1ccc(COc2nnc(NC(=O)c3cnc(C)cc3-c3cc(Cl)ncc3OC)s2)nc1` [Example 45, 2′-chloro-5′-methoxy-N-(5-((5-methoxypyridin-2-yl)methoxy)-1,3,4-thiadiazol-2-yl)-6-methyl-(4,4′-bipyridine)-3-carboxamide], the IC50 is not above 200 nM.

`COc1ccc(COc2nnc(NC(=O)c3cnc(C)cc3-c3c(F)cccc3OC(F)F)s2)nc1` [Example 46, 4-(2-(difluoromethoxy)-6-fluorophenyl)-N-(5-((5-methoxypyridin-2-yl)methoxy)-1,3,4-thiadiazol-2-yl)-6-methylnicotinamide]: the IC50 was not above 200 nM.

The term IC50 denotes the midpoint of a concentration-inhibition curve.

(Values after patent publication US20250325552A1, “SUBSTITUTED THIADIAZOLYL DERIVATIVES AS DNA POLYMERASE THETA INHIBITORS” (IDEAYA Biosciences, Inc., priority 2020, published 2025).)
